Structures can show the parent of a compound that is named as a salt.
System: not given
Details: not given

Row | melting point [°C] | SMILES
1 | 162 | CCc1nn(C(C)CN)c(CC)c1Sc1ccc(F)cc1.O=C(O)/C=C\C(=O)O (stereo not drawn)
2 | 185 to 188 | Cc1nn(CCN)c(C)c1Sc1ccccc1 (as salt: HCl) [Example 2, 2-[3,5-dimethyl-4-(phenylsulfanyl)-1H-pyrazol-1-yl]ethylamine]
3 | 167 | CCc1nn(C(C)C(N)=O)c(CC)c1Sc1ccc(F)cc1 (stereo not drawn) (as salt: hydrochloride)
4 | 148 | CCc1nn(CCN)c(CC)c1Sc1nnnn1C (as salt: salt) [Example 204]
5 | 154 | CCc1nn(CCN)c(CC)c1Sc1nccc(C(F)(F)F)n1 (as salt: salt) [Example 205]

The remaining lines, values behind:

Row | SMILES | melting point [°C]
6 | CCc1nn(C[C@H](C)N)c(CC)c1S(=O)(=O)c1ccc(N2CCCC(C)(C)C2=O)cc1.Cl | 131
7 | CCc1nn(CCNC)c(CC)c1Sc1ccc(F)cc1.O=C(O)/C=C\C(=O)O | 95 to 97
8 | CCc1nn(CC(C)(C)N)c(CC)c1Sc1ccc(F)cc1.O=C(O)/C=C\C(=O)O | 120 to 122
9 | CCc1nn(CCNC)c(CC)c1S(=O)(=O)c1ccc(N2C(=O)CC(C)(C)C2=O)cc1 [Example 160, 1-[4-({3,5-diethyl-1-[2-(methylamino)ethyl]-1H-pyrazol-4-yl}sulfonyl)phenyl]-3,3-dimethyl-2,5-pyrrolidinedione] | 84 to 86

Biological target: 5-HT2 receptors
Details: cited from earlier work

Row | SMILES | pKi for the 5-HT2 receptors | selectivity for the 5-HT2 receptors over 5-HT, receptors
10 | Cc1nc2sccn2c(=O)c1CCN1CCC(=C(c2ccc(F)cc2)c2ccc(F)cc2)CC1 [ritanserin] | 8.9 | 10,000 fold

Biological target: T1, 5-HT2C receptor (Homo sapiens, UniProt P28335)
T1 sequence (P28335 33-458): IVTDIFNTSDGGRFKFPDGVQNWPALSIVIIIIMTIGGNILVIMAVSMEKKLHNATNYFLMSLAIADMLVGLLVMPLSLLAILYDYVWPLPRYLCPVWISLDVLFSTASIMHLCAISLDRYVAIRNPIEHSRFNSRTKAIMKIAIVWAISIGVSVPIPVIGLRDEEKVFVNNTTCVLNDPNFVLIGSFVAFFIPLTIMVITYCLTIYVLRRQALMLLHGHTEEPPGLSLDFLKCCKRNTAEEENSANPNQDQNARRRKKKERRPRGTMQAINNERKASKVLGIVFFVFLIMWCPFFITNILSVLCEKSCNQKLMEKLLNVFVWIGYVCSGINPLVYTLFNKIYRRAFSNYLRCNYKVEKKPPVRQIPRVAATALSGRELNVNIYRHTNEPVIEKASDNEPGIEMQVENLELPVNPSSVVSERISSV
Details: cited from earlier work

Row | SMILES | selectivity as 5-HT2C receptor antagonist
11 | Cc1cc2c(cc1Cl)N(C(=O)Nc1ccc(Oc3cccnc3C)nc1)CC2 [SB-242084] | at least 100 fold
